Series [1] has as its system C. albicans SC5314 cells. In words: Intracellular labile zinc levels using Zinbo-5. The format is cell-based, Candida albicans. The settings on record: 6 h. As to the method: C. albicans SC5314 cells grown overnight were pelleted, washed three times with PBS buffer, and resuspended to obtain an OD600 of 2.0. Next, the cells were incubated with various concentrations of 19ak in 96-well plates at 30°C for 6 h, followed by incubation with 10 μM Zinbo-5 for 30 min. Finally, fluorescence was measured in a microplate reader (excitation at 355 nm, emission at 485 nm). Similar approach was used in detection of intracellular zinc levels of mammalian cells.

The nature of series [2]: Cytotoxicity testing (MTT). It counts as cell-based, human. The settings on record: human, 48 h, MTT. On the procedure:
(§1) h (for C. albicans, C. krusei, C. tropicalis, C. parapsilosis) or 48 h (for C. neoformans, A. fumigatus). The MIC was determined based on visible growth inhibition compared with the control. All experiments were performed in duplicate.
(§2) Cytotoxicity testing. The cell lines HK2 and 16HBE were used to evaluate the cytotoxicity of 19ak, 19k and 19t. Cells in DMEM containing 10% fetal bovine serum (Gibco) were seeded in 96-well tissue culture plates at a cell density of 1 × 10^4 cells/mL and incubated for 24 h to allow adhesion. The supernatant was then replaced with fresh DMEM containing various concentrations of 19ak, 19k and 19t. The plates were subsequently incubated for an additional 48 h at 37°C with 5% CO2, followed by the addition of 10 μL of MTT solution to each well and incubation at 37°C for 4 h.
(§3) The effects of the compounds on cell proliferation were detected by measuring the absorbance at 570 nm in a microplate reader (BioTek, VT, USA). Three independent experiments were conducted. […]

In series [3] the test system is human bronchial epithelial cell line 16HBE. The series is described as follows: Cytotoxicity testing (MTT). It counts as cell-based. Particulars: ratio of IC50 against 16HBE to MIC80 against C. albicans SC5314. On the procedure:
as §1, §2, §3

Series [4] deals with human renal epithelial cell line HK2. In words: Cytotoxicity testing (MTT). The format is cell-based. The settings on record: ratio of IC50 against HK2 to MIC80 against C. albicans SC5314. On the procedure: as §1, §2, §3
Series [5] relates to C. albicans SC5314 cells. In words: ROS production assay (DCFH-DA). The format is cell-based, Candida albicans. The settings on record: 6 h, compared with the control. As to the method:
ROS production assay. Logarithmic-phase C. albicans SC5314 cells (1 × 10^6 cells/mL in RPMI1640 medium) were incubated in the presence or absence of 19ak for 6 h, followed by incubation with 2′,7′-dichlorofluorescein diacetate (DCFH-DA) in the dark for 30 min. The fluorescence intensity was then measured by flow cytometry, and the data were analyzed with Win MDI 2.9 software. […]

Series [6] deals with C. albicans SC5314. In words: Rescue effect of exogenous metal ions on MIC of 19ak. The format is cell-based. The settings on record: Candida albicans. On the procedure: h (for C. albicans, C. krusei, C. tropicalis, C. parapsilosis) or 48 h (for C. neoformans, A. fumigatus). The MIC was determined based on visible growth inhibition compared with the control. All experiments were performed in duplicate. […]
Rescue effect of exogenous metal ions on fungal growth inhibition by 19ak.
Since the effects of thiosemicarbazone may be due to binding of intracellular metal ions, we investigated the impact of adding metal ions to the medium on the inhibitory effect of 19ak by performing antifungal susceptibility testing as described above in the presence of 50 μM, 100 μM, and 200 μM ZnSO4, FeSO4, and FeCl3. […]

The test system of series [7] is C. albicans SC5314. The series is described as follows: Respiratory activity by CTC staining. It counts as cell-based, Candida albicans. The settings on record: 6 h, 1 mM CTC; 19ak 0.125-1 μg/mL, TPEN 0.05-0.4 μg/mL. On the procedure: as §1
Cytotoxicity testing. The cell lines HK2 and 16HBE were used to evaluate the cytotoxicity of 19ak, 19k and 19t. Cells in DMEM containing 10% fetal bovine serum (Gibco) were seeded in 96-well tissue culture plates at a cell density of 1 × 10^4 cells/mL and incubated for 24 h to allow adhesion. The supernatant was then replaced with fresh DMEM containing various concentrations of 19ak, 19k and 19t. […]
The effects of the compounds on cell proliferation were detected by measuring the absorbance at 570 nm in a microplate reader (BioTek, VT, USA). […]
the fluorescent complex […] (CTF) is commonly used to indicate the intensity of microbial respiration. C. albicans SC5314 treated with 19ak was stained with 1 mM CTC for 30 min, followed by flow cytometry analysis of respiratory activity based on fluorescence intensity. Images of cells were obtained using a fluorescence microscope (IX71, Olympus, Tokyo, Japan). […] After an additional 2 h of incubation, OD450 in each well was detected with a microplate reader. […]
Mitochondrial complex activity was expressed as nmol/min/mg protein. […]

In brackets after ≈: the same amount, converted by molar mass. Like-named read-outs stand apart in the source and are kept apart here.

One may read the IC50 as the concentration needed to halve the response being measured. The MIC is the least concentration at which growth counts as inhibited. Regarding `C/C(=N\NC(=S)N(C)C)c1ccccn1` [Compound 19ak], the “Labile zinc ions (Zinbo-5 fluorescence)” value with C. albicans SC5314 cells [1] (0.125 μg/mL) is listed as “decreased”. Moreover, the “Reduction of intracellular zinc ions” value in the series with C. albicans SC5314 cells [1] (1 μg/mL) is “approximately 59.6%”. Besides, the IC50 at 48 h in series [2] (16HBE cells (bronchial epithelial cell line), 16HBE cells) is 6.97 µg/mL (≈ 31.4 µM); in series [2] (HK2 cells (renal epithelial cell line), HK2 cells), 26.8 µg/mL (≈ 121 µM). The “Selectivity index 16HBE” value in series [3] was found to be 55.78. The “Selectivity index HK2” value in series [4] was 214.32. For the same compound, the “ROS formation (DCFH-DA)” value with C. albicans SC5314 cells [5] is listed as “decreased ROS”. The MIC in the series on C. albicans SC5314 [6] (SC5314, + 50 μM Fe^2+ (FeSO4), read-out: MIC against C. albicans SC5314) was found to be 1 µg/mL; in the series on C. albicans SC5314 [6] (SC5314, + 50 μM Fe^3+ (FeCl3), read-out: MIC against C. albicans SC5314), 0.25 µg/mL; with C. albicans SC5314 [6] (SC5314, + 50 μM Zn^2+ (ZnSO4), read-out: MIC against C. albicans SC5314) it was 4 µg/mL; in the series with C. albicans SC5314 [6] (SC5314, + 100 μM Fe^2+ (FeSO4), read-out: MIC against C. albicans SC5314), 1 µg/mL; with C. albicans SC5314 [6] (SC5314, + 100 μM Fe^3+ (FeCl3), read-out: MIC against C. albicans SC5314), 0.25 µg/mL; with C. albicans SC5314 [6] (SC5314, + 100 μM Zn^2+ (ZnSO4), read-out: MIC against C. albicans SC5314), 4 µg/mL. The MIC in the series on C. albicans SC5314 [6] (SC5314, + 200 μM Fe^2+ (FeSO4), read-out: MIC against C. albicans SC5314) stood at 1 µg/mL; in the series on C. albicans SC5314 [6] (SC5314, + 200 μM Fe^3+ (FeCl3), read-out: MIC against C. albicans SC5314) it was 0.5 µg/mL; in the series with C. albicans SC5314 [6] (SC5314, + 200 μM Zn^2+ (ZnSO4), read-out: MIC against C. albicans SC5314), 4 µg/mL; in the series with C. albicans SC5314 [6] (SC5314, read-out: MIC against C. albicans SC5314) it was 0.125 µg/mL. The “Mitochondrial respiratory activity (CTC fluorescence intensity)” value in the series on C. albicans SC5314 [7] is “dose-dependently reduced”.

For the origin of these results see paper PMC9241695, “Selective Metal Chelation by a Thiosemicarbazone Derivative Interferes with Mitochondrial Respiration and Ribosome Biogenesis in Candida albicans” (Microbiology Spectrum, 2022).
